This is an account of results in patent US11319315B2, “Cyclohexyl acid triazole azoles as LPA antagonists” (BRISTOL-MYERS SQUIBB COMPANY, priority 2017, dated 2022).

Counter-ions that a name gives are not always drawn.

T1 sequence (Q92633 whole entry): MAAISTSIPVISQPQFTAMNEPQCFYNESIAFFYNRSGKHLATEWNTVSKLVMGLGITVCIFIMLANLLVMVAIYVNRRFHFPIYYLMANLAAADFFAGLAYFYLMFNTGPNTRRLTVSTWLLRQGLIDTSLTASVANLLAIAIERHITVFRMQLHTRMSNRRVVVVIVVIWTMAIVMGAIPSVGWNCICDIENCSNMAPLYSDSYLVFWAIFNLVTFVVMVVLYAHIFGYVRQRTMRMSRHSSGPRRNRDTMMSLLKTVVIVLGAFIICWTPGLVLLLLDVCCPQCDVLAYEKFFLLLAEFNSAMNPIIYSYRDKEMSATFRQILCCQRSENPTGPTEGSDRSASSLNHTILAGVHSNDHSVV

The experiment has as its target T1, human LPA1 (Homo sapiens, UniProt Q92633).
T1 construct: expressed in transfected cells; host or cells: Chinese hamster ovary (CHO) cells
As to the kind of experiment: LPA1 functional antagonist assay (LPA-induced calcium flux in CHO cells overexpressing human LPA1). Format: cell-based. Particulars: inhibition of calcium flux induced by 10 nM LPA, CHO cells overexpressing human LPA1; read-out: hLPA1 IC50. An outline of the steps: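 CHO cells overexpressing human LPA1, dye-loaded 30 min at 37 °C, then given compound (0.08 nM–5 μM final, 0.5% DMSO) in HBSS/20 mM HEPES/0.1% fatty-acid-free BSA for 20 min at room temperature before 10 nM LPA. IC50 as 50% inhibition of LPA-evoked calcium flux, 4-parameter logistic fit.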
For orientation: Calcium assays in cells follow changes in intracellular calcium, usually with a dye or a luminescent sensor.
By IC50 is commonly meant the concentration at which inhibition is half-maximal. With `Cc1nc(-c2nnn(C)c2CNc2noc(CC3CC3)n2)c(F)cc1O[C@H]1CCC[C@H](C(=O)O)C1` [Example 282, (1S,3S)-3-((6-(5-(((5-(cyclopropylmethyl)-1,2,4-oxadiazol-3-yl)amino)methyl)-1-methyl-1H-1,2,3-triazol-4-yl)-5-fluoro-2-methylpyridin-3-yl)oxy)cyclohexane-1-carboxylic acid], the concentration for half-maximal inhibition (IC50) was 236 nM. In the case of `Cc1nc(-c2nnn(C)c2CNc2noc(COC3CCC3)n2)ccc1O[C@H]1CCC[C@H](C(=O)O)C1` [Example 283, (1S,3S)-3-((6-(5-(((5-(cyclobutoxymethyl)-1,2,4-oxadiazol-3-yl)amino)methyl)-1-methyl-1H-1,2,3-triazol-4-yl)-2-methylpyridin-3-yl)oxy)cyclo-hexane-1-carboxylic acid, TFA salt], the half-maximal inhibitory concentration (IC50) is 19 nM. Turning to `CCCOCc1nc(NCc2c(-c3ccc(O[C@H]4CCC[C@H](C(=O)O)C4)c(C)n3)nnn2C)no1` [Example 284, (1S,3S)-3-((2-methyl-6-(1-methyl-5-(((5-(propoxymethyl)-1,2,4-oxadi-azol-3-yl)amino)methyl)-1H-1,2,3-triazol-4-yl)pyridin-3-yl)oxy)cyclo-hexane-1-carboxylic acid, TFA salt], the half-maximal inhibitory concentration (IC50) came out at 24 nM. Under `CC(C)CCc1nc(NCc2c(-c3ccc(O[C@H]4CCC[C@H](C(=O)O)C4)cn3)nnn2C)no1` [Example 285, (1 S,3 S)-3-((6-(5-(((5-isopentyl-1,2,4-oxadiazol-3-yl)amino)methyl)-1-methyl-1H-1,2,3-triazol-4-yl)pyridin-3-yl)oxy)cyclohexane-1-carboxylic acid] stands 93 nM; under `Cn1nnc(-c2ccc(O[C@H]3CCC[C@H](C(=O)O)C3)cn2)c1CNc1noc(CCC2CC2)n1` [Example 286, (1S,3S)-3-((6-(5-(((5-(2-cyclopropyl-ethyl)-1,2,4-oxadiazol-3-yl)amino)methyl)-1-methyl-1H-1,2,3-triazol-4-yl)pyridin-3-yl)oxy)cyclohexane-1-carboxylic acid], 10 nM; under `CCCCc1nc(NCc2c(-c3ccc(O[C@H]4CCC[C@H](C(=O)O)C4)cn3)nnn2C)no1` [Example 287, (1S,3S)-3-((6-(5-(((5-butyl-1,2,4-oxadiazol-3-yl)amino)methyl)-1-methyl-1H-1,2,3-triazol-4-yl)pyridin-3-yl)oxy)cyclohexane-1-carboxylic acid], 124 nM. Take `Cn1nnc(-c2ccc(O[C@H]3CCC[C@H](C(=O)O)C3)cn2)c1CNc1noc(CC2CCC2)n1` [Example 288, (1S,3S)-3-((6-(5-(((5-(cyclobutylmethyl)-1,2,4-oxadiazol-3-yl)amino)methyl)-1-methyl-1H-1,2,3-triazol-4-yl)pyridin-3-yl)oxy)cyclohexane-1-carboxylic acid]: the concentration for half-maximal inhibition (IC50) was 34.1 nM.

Consider `Cn1nnc(-c2ccc(O[C@H]3CCC[C@H](C(=O)O)C3)cn2)c1CNc1noc(C2CCCC2)n1` [Example 289, (1S,3S)-3-((6-(5-(((5-cyclopentyl-1,2,4-oxadiazol-3-yl)amino)methyl)-1-methyl-1H-1,2,3-triazol-4-yl)pyridin-3-yl)oxy)cyclohexane-1-carboxylic acid], for which the IC50 was 50.7 nM. With `Cn1nnc(-c2ccc(O[C@H]3CCC[C@H](C(=O)O)C3)cn2)c1CNc1noc(CCCC(F)(F)F)n1` [Example 292, (1S,3S)-3-((6-(1-methyl-5-(((5-(4,4,4-trifluorobutyl)-1,2,4-oxadi-azol-3-yl)amino)methyl)-1H-1,2,3-triazol-4-yl)pyridin-3-yl)oxy)cyclohexane-1-carboxylic acid] the figure was 48.7 nM.

As to `CC(C)c1nc(NCc2c(-c3ccc(O[C@H]4CCC[C@H](C(=O)O)C4)cn3)nnn2C)no1` [Example 293, (1S,3S)-3-((6-(5-(((5-isopropyl-1,2,4-oxadiazol-3-yl)amino)methyl)-1-methyl-1H-1,2,3-triazol-4-yl)pyridin-3-yl)oxy)cyclohexane-1-carboxylic acid], the IC50 amounted to 613 nM. With `Cn1nnc(-c2ccc(O[C@H]3CCC[C@H](C(=O)O)C3)cn2)c1CNc1noc(CCC2CCC2)n1` [Example 294, (1S,3S)-3-((6-(5-(((5-(2-cyclobutyl-ethyl)-1,2,4-oxadiazol-3-yl)amino)methyl)-1-methyl-1H-1,2,3-triazol-4-yl)pyridin-3-yl)oxy)cyclohexane-1-carboxylic acid] the figure was 33.4 nM; with `Cc1nc(-c2nnn(C)c2Cn2nnc(CC3CCC3)n2)ccc1O[C@H]1CCC[C@H](C(=O)O)C1` [Example 295, (1S,3S)-3-{[6-(5-{[5-(cyclobutyl-methyl)-2H-1,2,3,4-tetrazol-2-yl]methyl}-1-methyl-1H-1,2,3-triazol-4-yl)-2-methylpyridin-3-yl]oxy}cyclohexane-1-carboxylic acid], 102 nM. With `Cc1nc(-c2nnn(C)c2Cn2nnc(CCC3CC3)n2)ccc1O[C@H]1CCC[C@H](C(=O)O)C1` [Example 296, (1S,3S)-3-{[6-(5-{[5-(2-cyclopropyl-ethyl)-2H-1,2,3,4-tetrazol-2-yl]methyl}-1-methyl-1H-1,2,3-triazol-4-yl)-2-methylpyridin-3-yl]oxy}cyclohexane-1-carboxylic acid] the figure was 96 nM; with `Cc1nc(-c2nnn(C)c2Cn2nnc([C@H]3CCCO3)n2)ccc1O[C@H]1CCC[C@H](C(=O)O)C1` [Example 297, (1S,3S)-3-({2-methyl-6-[1-methyl-5-({5-[(2R)-oxolan-2-yl]-2H-1,2,3,4-tetrazol-2-yl}methyl)-1H-1,2,3-triazol-4-yl]pyridin-3-yl}oxy)cyclohexane-1-carboxylic acid], 92 nM; with `Cc1nc(-c2nnn(C)c2Cn2nnnc2C(C)C)ccc1O[C@H]1CCC[C@H](C(=O)O)C1` [Example 298, (1S,3S)-3-{[2-methyl-6-(1-methyl-5-{[5-(propan-2-yl)-1H-1,2,3,4-tetrazol-1-yl]methyl}-1H-1,2,3-triazol-4-yl)pyridin-3-yl]oxy}cyclohexane-1-carboxylic acid], 96 nM. Under `Cc1nc(-c2nnn(C)c2Cn2nnc(C(C)C)n2)ccc1O[C@H]1CCC[C@H](C(=O)O)C1` [Example 299, (1S,3S)-3-{[2-methyl-6-(1-methyl-5-{[5-(propan-2-yl)-2H-1,2,3,4-tetrazol-2-yl]methyl}-1H-1,2,3-triazol-4-yl)pyridin-3-yl]oxy}cyclo-hexane-1-carboxylic acid] stands 99 nM. As to `Cc1nc(-c2nnn(C)c2Cn2nnc(COc3ccccc3)n2)ccc1O[C@H]1CCC[C@H](C(=O)O)C1` [Example 300, (1S,3S)-3-{[2-methyl-6-(1-methyl-5-{[5-(phenoxymethyl)-2H-1,2,3,4-tetrazol-2-yl]methyl}-1H-1,2,3-triazol-4-yl)pyridin-3-yl]oxy}cyclohexane-1-carboxylic acid], the IC50 was 98 nM.

As to `Cc1cc(C)n(Cc2nnn(Cc3c(-c4ccc(O[C@H]5CCC[C@H](C(=O)O)C5)c(C)n4)nnn3C)n2)n1` [Example 301, (1S,3S)-3-({6-[5-({5-[(3,5-dimethyl-1H-pyrazol-1-yl)methyl]-2H-1,2,3,4-tetrazol-2-yl}methyl)-1-methyl-1H-1,2,3-triazol-4-yl]-2-methylpyridin-3-yl}oxy)cyclohexane-1-carboxylic acid], the 50% inhibitory concentration (IC50) was 963 nM.
